From patent US20220041623A1, “INDOLE MACROCYCLIC DERIVATIVE, PREPARATION METHOD THEREOF AND APPLICATION THEREOF IN MEDICINE” (JIANGSU HENGRUI MEDICINE CO., LTD., priority 2018, published 2022)

Target: T1, MCL-1 protein (Homo sapiens, UniProt Q07820)
T1 construct: Bim peptide bought from R&D, 3526/1 NA
Assay: MCL-1 protein binding experiment (HTRF, MCL-1/Bim)
Details: for inhibition at up to 10 µM / Maximum inhibition rate (%): HTRF MCL-1/Bim binding, initial concentration 10 μM; for inhibition at up to 10 µM: read-out: Maximum inhibition rate (%); for Ki: HTRF, 0.1 nM His-MCL-1, 2.5 nM bio-Bim, room temperature
Protocol: The following method was used to determine the binding ability of the compound of the present invention to MCL-1 protein. The experimental method is briefly described as follows.
MCL-1 inhibitors can bind to MCL-1 protein to prevent the binding of MCL-1 to Bim protein. The experiment evaluates the binding ability of MCL-1 inhibitor to MCL-1 protein by detecting the binding of MCL-1 to Bim protein through HTRF method, and the activity of the compound was evaluated according to the Ki value.
The mixture was incubated at room temperature for 2 hours, followed by the detection of fluorescence signals at 620 nm and 665 nm by PHERAstar. The data was processed by GraphPad software.

T1 sequence (Q07820 171-327): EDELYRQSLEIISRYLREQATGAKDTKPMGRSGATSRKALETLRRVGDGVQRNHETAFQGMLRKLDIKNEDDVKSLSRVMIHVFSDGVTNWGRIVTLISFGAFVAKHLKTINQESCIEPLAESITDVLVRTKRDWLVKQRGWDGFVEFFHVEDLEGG

SMILES | inhibition at up to 10 µM | Ki | Maximum inhibition rate (%) | Maximum inhibition rate (%) (10 µM)
Cc1c2c(nn1C)CSCc1cc(n(C)n1)CSc1cc(c3ccccc3c1)OCCCn1c(C(=O)O)cc3c-2c(Cl)ccc31 (single isomer, unassigned) [Example 1-2, (Sa)-17-Chloro-5,13-14-trimethyl-28-oxa-2,9-dithia-5,6,12,13,24-pentaazaheptacyclo[27.7.1.1^4,7.0^11,15.0^16,21.0^20,24.0^30,35]octatriaconta-1(37),4(38),6,11,14,16,18,20,22,29,31,33,35-tridecaene-23-carboxylic acid] | – | 56 nM | 100% | –
Cc1c(C(=O)O)n2c3ccc(Cl)c(c13)-c1c(nn(C)c1C)CSCc1cc(n(C)n1)CSc1cc(c3ccccc3c1)OCCC2 (single isomer, unassigned) [Example 2-2, (Sa)-17-Chloro-5,13,14,22-tetramethyl-28-oxa-2,9-dithia-5,6,12,13,24-pentaazaheptacyclo[27.7.1.1^4,7.0^11,15.0^16,21.0^20,24.0^30,35]octatriaconta-1(37),4(38),6,11,14,16,18,20,22,29,31,33,35-tridecaene-23-carboxylic acid] | – | 65 nM | – | 95%
Cc1c(C(=O)O)n2c3ccc(Cl)c(c13)-c1c(nn(C)c1C)CN(C)Cc1cc(n(C)n1)CSc1cc(c3ccccc3c1)OCCC2 (single isomer, unassigned) [Example 3-2, (Sa)-17-Chloro-5,9,13,14,22-pentamethyl-28-oxa-2-thia-5,6,9,12,13,24-hexaazaheptacyclo[27.7.1.1^4,7.0^11,15.0^16,21.0^20,24.0^30,35]octatriaconta-1(37),4(38),6,11,14,16,18,20,22,29,31,33,35-tridecaene-23-carboxylic acid] | – | 14 nM | – | 99%
Cc1c(C(=O)O)n2c3ccc(Cl)c(c13)-c1c(nn(C)c1C)CSCc1cc(n(C)n1)CSc1cc3c(c(c1)OCCC2)CCCC3 (single isomer, unassigned) [Example 7-2, (Sa)-17-Chloro-5,13,14,22-tetramethyl-28-oxa-2,9-dithia-5,6,12,13,24-pentaazaheptacyclo[27.7.1.1^4,7.0^11,15.0^16,21.0^20,24.0^30,35]octatriaconta-1(37),4(38),6,11,14,16,18,20,22,29,35-undecaene-23-carboxylic acid] | – | 15 nM | – | 100%
Cc1c(C(=O)O)n2c3ccc(Cl)c(c13)-c1c(nn(C)c1C)CSCc1cc(n(C)n1)CCc1cc3c(c(c1)OCCC2)CCCC3 (single isomer, unassigned) [Example 8-2, (Sa)-17-Chloro-5,13,14,22-tetramethyl-28-oxa-9-thia-5,6,12,13,24-pentaazaheptacyclo[27.7.1.1^4,7.0^11,15.0^16,21.0^20,24.0^30,35]octatriaconta-1(37),4(38),6,11,14,16,18,20,22,29,35-undecaene-23-carboxylic acid] | – | 57 nM | – | 98%
Cc1c(C(=O)O)n2c3ccc(Cl)c(c13)-c1c(nn(C)c1C)CSCc1cc(n(C)n1)CSc1cc(cc3c1CCC3)OCCC2 (single isomer, unassigned) [Example 12-2, (Sa)-17-Chloro-5,13,14,22-tetramethyl-28-oxa-2,9-dithia-5,6,12,13,24-pentaazaheptacyclo[27.6.1.1^4,7.0^11,15.0^16,21.0^20,24.0^30,35]heptatriaconta-1(36),4(37),6,11,14,16,18,20,22,29,31(35)-undecaene-23-carboxylic acid] | – | 5.7 nM | 100% | –
Cc1c(C(=O)O)n2c3ccc(Cl)c(c13)-c1c(nn(C)c1C)CSCc1cc(n(C)n1)CSc1cc3c(c(c1)OCCC2)CCC3 (single isomer, unassigned) [Example 13-2, (Sa)-17-Chloro-5,13,14,22-tetramethyl-28-oxa-2,9-dithia-5,6,12,13,24-pentaazaheptacyclo[27.6.1.1^4,7.0^11,15.0^16,21.0^20,24.0^30,34]heptatriaconta-1(36),4(37),6,11,14,16,18,20,22,29,34-undecaene-23-carboxylic acid] | – | 4.4 nM | – | 99%
Cc1c2c(nn1C)CSCc1cc(n(C)n1)CSc1cc(c3ccccc3c1)OCCCn1c(C(=O)O)cc3c-2c(Cl)ccc31 [Example 1, 17-Chloro-5,13-14-trimethyl-28-oxa-2,9-dithia-5,6,12,13,24-pentaazaheptacyclo[27.7.1.1^4,7.0^11,15.0^16,21.0^20,24.0^30,35]octatriaconta-1(37),4(38),6,11,14,16,18,20,22,29,31,33,35-tridecaene-23-carboxylic acid] | 100% | 2.39 nM | – | –
Cc1c(C(=O)O)n2c3ccc(Cl)c(c13)-c1c(nn(C)c1C)CSCc1cc(n(C)n1)CCc1cc(c3ccccc3c1)OCCC2 [Example 4, 17-Chloro-5,13,14,22-tetramethyl-28-oxa-9-thia-5,6,12,13,24-pentaazaheptacyclo[27.7.1.1^4,7.0^11,15.0^16,21.0^20,24.0^30,35]octatriaconta-1(37),4(38),6,11,14,16,18,20,22,29,31,33,35-tridecaene-23-carboxylic acid] | 99% | 1.35 nM | – | –
Cc1cc2cc(c1)SCc1cc(nn1C)CN(C)Cc1nn(C)c(C)c1-c1c(Cl)ccc3c1c(C)c(C(=O)O)n3CCCO2 [Example 5, 17-Chloro-5,9,13,14,22,31-hexamethyl-28-oxa-2-thia-5,6,9,12,13,24-hexaazahexacyclo[27.3.1.1^4,7.0^11,15.0^16,21.0^20.24]tetratriaconta-1(33),4(34),6,11,14,16,18,20,22,29,31-undecaene-23-carboxylic acid] | 99% | 4.8 nM | – | –
Cc1cc2cc(c1)SCc1cc(nn1C)CSCc1nn(C)c(C)c1-c1c(Cl)ccc3c1c(C)c(C(=O)O)n3CCCO2 [Example 6, 17-Chloro-5,13,14,22,31-pentamethyl-28-oxa-2,9-dithia-5,6,12,13,24-pentaazahexacyclo[27.3.1.1^4,7.0^11,15.0^16,21.0^20,24]tetratriaconta-1(33),4(34),6,11,14,16,18,20,22,29,31-undecaene-23-carboxylic acid] | 98% | 1.9 nM | – | –

The next compounds have a lower Ki than those just listed; values first:

inhibition at up to 10 µM | Ki | Maximum inhibition rate (%) | Maximum inhibition rate (%) (10 µM) | SMILES
99% | 0.71 nM | – | – | Cc1c(C(=O)O)n2c3ccc(Cl)c(c13)-c1c(nn(C)c1C)CSCc1cc(n(C)n1)CSc1cc3c(c(c1)OCCC2)CCCC3 [Example 7, 17-Chloro-5,13,14,22-tetramethyl-28-oxa-2,9-dithia-5,6,12,13,24-pentaazaheptacyclo[27.7.1.1^4,7.0^11,15.0^16,21.0^20,24.0^30,35]octatriaconta-1(37),4(38),6,11,14,16,18,20,22,29,35-undecaene-23-carboxylic acid]
100% | 0.6 nM | – | – | Cc1c(C(=O)O)n2c3ccc(Cl)c(c13)-c1c(nn(C)c1C)CN(C)Cc1cc(n(C)n1)CSc1cc(c3ccccc3c1)OCCC2 [Example 3, 17-Chloro-5,9,13,14,22-pentamethyl-28-oxa-2-thia-5,6,9,12,13,24-hexaazaheptacyclo[27.7.1.1^4,7.0^11,15.0^16,21.0^20,24.0^30,35]octatriaconta-1(37),4(38),6,11,14,16,18,20,22,29,31,33,35-tridecaene-23-carboxylic acid]
100% | 0.36 nM | – | – | Cc1c2c(nn1C)CSCc1cc(n(C)n1)CSc1cc(c3ccccc3c1)OCCCn1c(C(=O)O)cc3c-2c(Cl)ccc31 (single isomer, unassigned) [Example 1-1, (Ra)-17-Chloro-5,13-14-trimethyl-28-oxa-2,9-dithia-5,6,12,13,24-pentaazaheptacyclo[27.7.1.1^4,7.0^11,15.0^16,21.0^20,24.0^30,35]octatriaconta-1(37),4(38),6,11,14,16,18,20,22,29,31,33,35-tridecaene-23-carboxylic acid]
100% | 0.32 nM | – | – | CCc1c(C(=O)O)n2c3ccc(Cl)c(c13)-c1c(nn(C)c1C)CSCc1cc(n(C)n1)CSc1cc(c3ccccc3c1)OCCC2 (single isomer, unassigned) [Example 14-1, (Ra)-17-Chloro-22-ethyl-5,13-14-trimethyl-28-oxa-2,9-dithia-5,6,12,13,24-pentaazaheptacyclo[27.7.1.1^4,7.0^11,15.0^16,21.0^20,24.0^30,35]octatriaconta-1(37),4(38),6,11,14,16,18,20,22,29,31,33,35-tridecaene-23-carboxylic acid]
100% | 0.18 nM | – | – | Cc1c(C(=O)O)n2c3ccc(Cl)c(c13)-c1c(nn(C)c1C)CN(C)Cc1cc(n(C)n1)CSc1cc(c3ccccc3c1)OCCC2 (single isomer, unassigned) [Example 3-1, (Ra)-17-Chloro-5,9,13,14,22-pentamethyl-28-oxa-2-thia-5,6,9,12,13,24-hexaazaheptacyclo[27.7.1.1^4,7.0^11,15.0^16,21.0^20,24.0^30,35]octatriaconta-1(37),4(38),6,11,14,16,18,20,22,29,31,33,35-tridecaene-23-carboxylic acid]
99% | 0.18 nM | – | – | Cc1c(C(=O)O)n2c3ccc(Cl)c(c13)-c1c(nn(C)c1C)CSCc1cc(n(C)n1)CSc1cc(c3ccccc3c1)OCCC2 [Example 2, 17-Chloro-5,13,14,22-tetramethyl-28-oxa-2,9-dithia-5,6,12,13,24-pentaazaheptacyclo[27.7.1.1^4,7.0^11,15.0^16,21.0^20,24.0^30,35]octatriaconta-1(37),4(38),6,11,14,16,18,20,22,29,31,33,35-tridecaene-23-carboxylic acid]
